According to US6706740B2, “Fungicidal heterocyclic aromatic amides and their compositions, methods of use and preparation” (Dow AgroSciences LLC, priority 1999, dated 2004):

Test system: Phytophthora infestans—PHYTIN
Assay: whole plant or invertebrate
Assay type: in vivo
Settings: Phytophthora, in Solanum lycopersicum, 24 h, read-out: PHYTIN in vivo 1 Day Protectant

Compound | pest or weed control at 100 ppm
COc1ccnc(C(=O)NC2CC(C)(C)C(=O)C(C)(C)C2)c1OC(C)=O [Compound 575] | < 25%
COc1ccc(Oc2cccc(NC(=O)c3nccc(OC)c3O)c2)cc1 [Compound 432] | < 25%
COCC(=O)Oc1c(OC)ccnc1C(=O)N[C@H]1COC(=O)[C@H](Cc2ccccc2)[C@@H](OC(=O)C(C)C)[C@H](C)OC1=O [Compound 653] | < 25%
O=C(Nc1cccc(C(F)(F)F)c1)c1ncccc1O [Compound 214] | < 25%

Test system: Stagonospora nodorum (Leptosphaeria nodorum—LEPTNO)
Assay: In vitro fungal growth inhibition, Stagonospora nodorum (LEPTNO)
Assay type: cell-based
Settings: Leptosphaeria; 25 ppm in growth medium; read-out: LEPTNO in vitro Growth Inhibition

Compound | inhibition at 25 ppm
COc1ccc(Oc2cccc(NC(=O)c3nccc(OC)c3O)c2)cc1 [Compound 432] | > 80%
COCC(=O)Oc1c(OC)ccnc1C(=O)N[C@H]1COC(=O)[C@H](Cc2ccccc2)[C@@H](OC(=O)C(C)C)[C@H](C)OC1=O [Compound 653] | > 80%
O=C(Nc1cccc(C(F)(F)F)c1)c1ncccc1O [Compound 214] | < 80%

Same assay, conditions: Leptosphaeria; 25 ppm in the growth medium; read-out: LEPTNO in vitro Growth Inhibition

Compound | inhibition at 25 ppm
COc1ccnc(C(=O)NC2CC(C)(C)C(=O)C(C)(C)C2)c1OC(C)=O [Compound 575] | < 80%

Test system: Mycosphaerella graminicola (Septoria tritici—SEPTTR)
Assay: In vitro fungal growth inhibition, Mycosphaerella graminicola (SEPTTR)
Assay type: cell-based
Settings: Zymoseptoria tritici; 25 ppm in growth medium; read-out: SEPTTR in vitro Growth Inhibition

Compound | inhibition at 25 ppm
COc1ccc(Oc2cccc(NC(=O)c3nccc(OC)c3O)c2)cc1 [Compound 432] | > 80%
COCC(=O)Oc1c(OC)ccnc1C(=O)N[C@H]1COC(=O)[C@H](Cc2ccccc2)[C@@H](OC(=O)C(C)C)[C@H](C)OC1=O [Compound 653] | > 80%
O=C(Nc1cccc(C(F)(F)F)c1)c1ncccc1O [Compound 214] | < 80%

Same assay, conditions: Zymoseptoria tritici; 25 ppm in the growth medium; read-out: SEPTTR in vitro Growth Inhibition

Compound | inhibition at 25 ppm
COc1ccnc(C(=O)NC2CC(C)(C)C(=O)C(C)(C)C2)c1OC(C)=O [Compound 575] | < 80%

Test system: Phytophthora infestans (PHYTIN)
Assay: microbe, parasite or virus in culture
Assay type: cell-based
Settings: Phytophthora infestans, read-out: PHYTIN in vitro Growth Inhibition

Compound | inhibition at 25 ppm
COc1ccnc(C(=O)NC2CC(C)(C)C(=O)C(C)(C)C2)c1OC(C)=O [Compound 575] | < 80%
COc1ccc(Oc2cccc(NC(=O)c3nccc(OC)c3O)c2)cc1 [Compound 432] | < 80%
COCC(=O)Oc1c(OC)ccnc1C(=O)N[C@H]1COC(=O)[C@H](Cc2ccccc2)[C@@H](OC(=O)C(C)C)[C@H](C)OC1=O [Compound 653] | < 80%
O=C(Nc1cccc(C(F)(F)F)c1)c1ncccc1O [Compound 214] | < 80%

Test system: Septoria tritici—SEPTTR
Assay: Leaf Blotch of Wheat, in vivo whole plant, 24 Hour Protectant
Settings: 100 ppm spray, wheat, 24 hour protectant, % control of fungal infection vs untreated plants

Compound | SEPTTR in vivo 1 Day Protectant
COCC(=O)Oc1c(OC)ccnc1C(=O)N[C@H]1COC(=O)[C@H](Cc2ccccc2)[C@@H](OC(=O)C(C)C)[C@H](C)OC1=O [Compound 653] | + +

Same assay, conditions: Zymoseptoria tritici, 24 h, 100 ppm spray, 24 hour protectant, wheat; control of fungal infection vs untreated plants; read-out: SEPTTR in vivo 1 Day Protectant

Compound | pest or weed control at 100 ppm
O=C(Nc1cccc(C(F)(F)F)c1)c1ncccc1O [Compound 214] | < 25%

Same assay, conditions: Zymoseptoria tritici, 24 h, 100 ppm spray, wheat, 24 hour protectant; control of fungal infection vs untreated plants; read-out: SEPTTR in vivo 1 Day Protectant

Compound | pest or weed control at 100 ppm
COc1ccc(Oc2cccc(NC(=O)c3nccc(OC)c3O)c2)cc1 [Compound 432] | < 25%

Same assay, conditions: Zymoseptoria tritici, 24 h, wheat plants sprayed at 100 ppm, inoculated after 24 hours; control of fungal infection vs untreated plants; read-out: SEPTTR in vivo 1 Day Protectant

Compound | pest or weed control at 100 ppm
COc1ccnc(C(=O)NC2CC(C)(C)C(=O)C(C)(C)C2)c1OC(C)=O [Compound 575] | 25 to 74%

Test system: Ustilago maydis (USTIMA)
Assay: microbe, parasite or virus in culture
Assay type: cell-based
Settings: Mycosarcoma maydis, read-out: USTIMA in vitro Growth Inhibition

Compound | inhibition at 25 ppm
COc1ccnc(C(=O)NC2CC(C)(C)C(=O)C(C)(C)C2)c1OC(C)=O [Compound 575] | < 80%
COc1ccc(Oc2cccc(NC(=O)c3nccc(OC)c3O)c2)cc1 [Compound 432] | < 80%
COCC(=O)Oc1c(OC)ccnc1C(=O)N[C@H]1COC(=O)[C@H](Cc2ccccc2)[C@@H](OC(=O)C(C)C)[C@H](C)OC1=O [Compound 653] | < 80%
O=C(Nc1cccc(C(F)(F)F)c1)c1ncccc1O [Compound 214] | < 80%

Test system: Puccinia recondita—PUCCRT
Assay: Brown Rust of Wheat, in vivo whole plant, 24 Hour Protectant
Settings: 100 ppm spray, wheat, 24 hour protectant, % control of fungal infection vs untreated plants

Compound | PUCCRT in vivo 1 Day Protectant
COCC(=O)Oc1c(OC)ccnc1C(=O)N[C@H]1COC(=O)[C@H](Cc2ccccc2)[C@@H](OC(=O)C(C)C)[C@H](C)OC1=O [Compound 653] | + +

Same assay, conditions: Puccinia; 100 ppm spray, 24 hour protectant, wheat; control of fungal infection vs untreated plants; read-out: PUCCRT in vivo 1 Day Protectant

Compound | pest or weed control at 100 ppm
O=C(Nc1cccc(C(F)(F)F)c1)c1ncccc1O [Compound 214] | < 25%

Same assay, conditions: Puccinia; 100 ppm spray, wheat, 24 hour protectant; control of fungal infection vs untreated plants; read-out: PUCCRT in vivo 1 Day Protectant

Compound | pest or weed control at 100 ppm
COc1ccc(Oc2cccc(NC(=O)c3nccc(OC)c3O)c2)cc1 [Compound 432] | 25 to 74%

Same assay, conditions: Puccinia; wheat plants sprayed at 100 ppm, inoculated after 24 hours; control of fungal infection vs untreated plants; read-out: PUCCRT in vivo 1 Day Protectant

Compound | pest or weed control at 100 ppm
COc1ccnc(C(=O)NC2CC(C)(C)C(=O)C(C)(C)C2)c1OC(C)=O [Compound 575] | 25 to 74%

Test system: Magnaporthe grisea (Pyricularia oryzae—PYRIOR)
Assay: microbe, parasite or virus in culture
Assay type: cell-based
Settings: Pyricularia oryzae, read-out: PYRIOR in vitro Growth Inhibition

Compound | inhibition at 25 ppm
COc1ccnc(C(=O)NC2CC(C)(C)C(=O)C(C)(C)C2)c1OC(C)=O [Compound 575] | < 80%
COc1ccc(Oc2cccc(NC(=O)c3nccc(OC)c3O)c2)cc1 [Compound 432] | < 80%
COCC(=O)Oc1c(OC)ccnc1C(=O)N[C@H]1COC(=O)[C@H](Cc2ccccc2)[C@@H](OC(=O)C(C)C)[C@H](C)OC1=O [Compound 653] | < 80%
O=C(Nc1cccc(C(F)(F)F)c1)c1ncccc1O [Compound 214] | < 80%

Test system: Erysiphe graminis—ERYSGT
Assay: Powdery Mildew of Wheat, in vivo whole plant, 24 Hour Protectant
Settings: 100 ppm spray, wheat, 24 hour protectant, % control of fungal infection vs untreated plants

Compound | ERYSGT in vivo 1 Day Protectant
COCC(=O)Oc1c(OC)ccnc1C(=O)N[C@H]1COC(=O)[C@H](Cc2ccccc2)[C@@H](OC(=O)C(C)C)[C@H](C)OC1=O [Compound 653] | + +

Same assay, conditions: Erysiphe; 100 ppm spray, 24 hour protectant, wheat; control of fungal infection vs untreated plants; read-out: ERYSGT in vivo 1 Day Protectant

Compound | pest or weed control at 100 ppm
O=C(Nc1cccc(C(F)(F)F)c1)c1ncccc1O [Compound 214] | < 25%

Same assay, conditions: Erysiphe; 100 ppm spray, wheat, 24 hour protectant; control of fungal infection vs untreated plants; read-out: ERYSGT in vivo 1 Day Protectant

Compound | pest or weed control at 100 ppm
COc1ccc(Oc2cccc(NC(=O)c3nccc(OC)c3O)c2)cc1 [Compound 432] | < 25%

Same assay, conditions: Erysiphe; wheat plants sprayed at 100 ppm, inoculated after 24 hours; control of fungal infection vs untreated plants; read-out: ERYSGT in vivo 1 Day Protectant

Compound | pest or weed control at 100 ppm
COc1ccnc(C(=O)NC2CC(C)(C)C(=O)C(C)(C)C2)c1OC(C)=O [Compound 575] | < 25%

Test system: Rhizoctonia solani (RHIZSO)
Assay: microbe, parasite or virus in culture
Assay type: cell-based
Settings: Rhizoctonia solani, read-out: RHIZSO in vitro Growth Inhibition

Compound | inhibition at 25 ppm
COc1ccnc(C(=O)NC2CC(C)(C)C(=O)C(C)(C)C2)c1OC(C)=O [Compound 575] | < 80%
COc1ccc(Oc2cccc(NC(=O)c3nccc(OC)c3O)c2)cc1 [Compound 432] | < 80%
COCC(=O)Oc1c(OC)ccnc1C(=O)N[C@H]1COC(=O)[C@H](Cc2ccccc2)[C@@H](OC(=O)C(C)C)[C@H](C)OC1=O [Compound 653] | < 80%
O=C(Nc1cccc(C(F)(F)F)c1)c1ncccc1O [Compound 214] | < 80%

Test system: Leptosphaeria nodorum—LEPTNO
Assay: Glume Blotch of Wheat, in vivo whole plant, 24 Hour Protectant
Settings: 100 ppm spray, wheat, 24 hour protectant, % control of fungal infection vs untreated plants

Compound | LEPTNO in vivo 1 Day Protectant
COCC(=O)Oc1c(OC)ccnc1C(=O)N[C@H]1COC(=O)[C@H](Cc2ccccc2)[C@@H](OC(=O)C(C)C)[C@H](C)OC1=O [Compound 653] | + +

Same assay, conditions: Leptosphaeria; 100 ppm spray, 24 hour protectant, wheat; control of fungal infection vs untreated plants; read-out: LEPTNO in vivo 1 Day Protectant

Compound | pest or weed control at 100 ppm
O=C(Nc1cccc(C(F)(F)F)c1)c1ncccc1O [Compound 214] | < 25%

Same assay, conditions: Leptosphaeria; 100 ppm spray, wheat, 24 hour protectant; control of fungal infection vs untreated plants; read-out: LEPTNO in vivo 1 Day Protectant

Compound | pest or weed control at 100 ppm
COc1ccc(Oc2cccc(NC(=O)c3nccc(OC)c3O)c2)cc1 [Compound 432] | 25 to 74%

Same assay, conditions: Leptosphaeria; wheat plants sprayed at 100 ppm, inoculated after 24 hours; control of fungal infection vs untreated plants; read-out: LEPTNO in vivo 1 Day Protectant

Compound | pest or weed control at 100 ppm
COc1ccnc(C(=O)NC2CC(C)(C)C(=O)C(C)(C)C2)c1OC(C)=O [Compound 575] | 25 to 74%
